“And” between values parts separate entries of the source, which are not always exact repeats. Identical values can stand only once. Like-named read-outs stand apart in the source and are kept apart here.
How the values were obtained:
[1] = system: PANC-1, HPAF-II, AsPC-1, and MIA-PaCa2; test: Cell killing against various cancer cell lines; type: cell-based; settings: all cancer cells tested
Procedure: Various compounds, including (R)-H4CBD and (S)-H4CBD, and H4CBDV racemic mixture, were tested for cell killing against various cancer cell lines, including PANC-1, HPAF-II, AsPC-1, and MIA-PaCa2.

[2] = Pharmacokinetics in CD1 male mice (plasma, HPLC-MS); type: in vivo; settings: for MRT inf: read-out: MRTInf—obs; for Vd: read-out: Vss—obs
Procedure: Formulation and dosing information for pharmacokinetic data is provided in Table 5 (CD=beta-cyclodextrin). The solutions were sonicated, vortexed, and slightly heated resulting in a clear purple liquid.
Pharmacokinetic data was produced by administering CD1 male mice with CCL-104 (H4CBD) or CCL-106 (H4CBDV). Each compound was formulated and administered as shown in Example 3. Plasma was sampled from the IV administered mice at 5 min, 15 min, 30 min, 1 hr, 2 hr, 4 hr post dose. Plasma was sampled from the PO administered mice at 15 min, 30 min, 1 hr, 2 hr, 4 hr, 6 hr post dose. The desired serial concentrations of working solutions were achieved by diluting stock solution of analyte with 50% acetonitrile in water solution. 10 μL of working solutions (0.5, 1, 2, 5, 10, 50, 100, 500, 1000 ng/mL) were added to 10 μL of the blank male CD1 mice plasma to achieve calibration standards of 0.5-1000 ng/mL (0.5, 1, 2, 5, 10, 50, 100, 500, 1000 ng/mL) in a total volume of 20 μL. Six quality control samples at 1 ng/mL, 2 ng/mL, 5 ng/mL, 10 ng/mL, 50 ng/mL and 800 ng/mL for plasma were prepared independently of those used for the calibration curves. These QC samples were prepared on the day of analysis in the same way as calibration standards. 20 μL standards, 20 μL QC samples and 20 μL unknown samples (10 μL plasma with 10 μL blank solution) were added to 200 μL of methanol containing IS mixture for precipitating protein respectively. Then the samples were vortexed for 30 seconds, then centrifuged at 4° C., 4,000 rpm for 15 min. The supernatant was diluted with water at a ratio of 1:2. 15 μL of the diluted supernatant was injected into the LC/MS/MS system for quantitative analysis.

[3] = system: AsPC-1; test: CellTiterGlo cell viability, AsPC-1 cells; type: cell-based; settings: Homo sapiens, ASPC1, 72 h
Procedure: The IC50 values for (R)-H4CBD, (S)-H4CBD, H4CBDV racemic mixture, and bortezomib were determined. Compound treatment of cells started one day after seeding with a final DMSO concentration of 0.1% and was performed by nanodrop-dispensing using a Tecan Dispenser. 0.1% DMSO (solvent) and Staurosporine (1,0E-05M) served as high control (100% viability) and low control (0% viability), respectively. For the assays, cells were seeded in white cell culture-treated flat and clear bottom multiwell plates and incubated at 37° C. overnight before compounds were added. After incubation for 72 h at 37° C. at 5% or 10% CO2 dependent on the medium, cell plates were equilibrated to room temperature for one hour, CellTiterGlo reagent (Promega) was added and luminescence was measured approximately an hour later using a luminometer.
Raw data were converted into percent cell viability relative to the high and low control, which were set to 100% and 0%, respectively. IC50 calculation was performed using GraphPad Prism software with a variable slope sigmoidal response fitting model using 0% viability as bottom constraint and 100% viability as top constraint. IC50 results in PANC-1, MIA-PaCa2, and AsPC-1 cells for (R)-H4CBD, (S)-H4CBD, H4CBDV racemic mixture, and bortezomib are shown in FIGS. 10-12 and Table 2

[4] = Potential maximum tolerated dosages in mice; type: in vivo
Procedure: To determine potential maximum tolerated dosages, 3.12, 6.25, 10, and 12.5 mg/kg of CCL-106, for 2, 2, 1, and 1 doses respectively, were administered to mice. […] Mice were administered high doses of CCL-104 and CCL-106.

[5] = IV 10 mg/kg, individual mouse, 10 mg/kg
[6] = PO 10 mg/kg, individual mouse, 10 mg/kg
[7] = male, CD1, mouse, plasma, iv, 10 mg/kg, IV 10 mg/kg, Mean of 4 mice
[8] = male, CD1, mouse, plasma, iv, 10 mg/kg, IV 10 mg/kg, individual mouse
[9] = male, CD1, mouse, plasma, po, 10 mg/kg, PO 10 mg/kg, Mean of 4 mice
[10] = male, CD1, mouse, plasma, po, 10 mg/kg, PO 10 mg/kg, individual mouse

For `CCCc1cc(O)c(C2CC(C)CCC2C(C)C)c(O)c1` (racemic) [CCL-106, hexahydrocannabidivarin], the “cytotoxicity against cancer cells” value [1] was “shows cytotoxicity against all cancer cells tested”, the “AUClast/D (h*mg/mL)” value ([2]; IV 10 mg/kg, Mean of 4 mice) was 184 h*ng/mL per mg/kg and the “AUC—% Extrap—obs” value ([2]; IV 10 mg/kg, Mean of 4 mice) was 18.4%. For the same compound, the “Cl_obs” value ([2]; IV 10 mg/kg, Mean of 4 mice) was 74.7 mL/min/kg, the “AUCInf” value [2, 5] was 2519 ng·h/mL and 2031 ng·h/mL and 2513 ng·h/mL and the “AUClast” value [2, 5] was 2047 ng·h/mL and 1630 ng·h/mL and 1952 ng·h/mL. For the same compound, the “AUC—% Extrap—obs” value [2, 5] was 12.7% and 18.7% and 19.8% and 22.3%, the “C0” value [2, 5] was 4701 ng/mL and 5792 ng/mL and 5062 ng/mL and the “Cl_obs” value [2, 5] was 84.1 mL/min/kg and 66.2 mL/min/kg and 82.1 mL/min/kg and 66.3 mL/min/kg. The “MRTInf—obs” value [2, 5] was 2.11 h and 2.16 h and 2.49 h, the “T1/2” value [2, 5] was 2.14 h and 2.50 h and 2.99 h and the “Vss—obs” value [2, 5] was 8.38 L/kg and 10.7 L/kg and 9.89 L/kg. For the same compound, the “AUClast/D (h*mg/mL)” value ([2]; PO 10 mg/kg, Mean of 4 mice) was 31.6 h*ng/mL per mg/kg, the “AUC—% Extrap—obs” value ([2]; PO 10 mg/kg, Mean of 4 mice) was 25.7% and the “AUCInf” value [2, 6] was 404 ng·h/mL and 453 ng·h/mL and 479 ng·h/mL. The “AUClast” value [2, 6] was 308 ng·h/mL and 414 ng·h/mL and 226 ng·h/mL, the “AUC—% Extrap—obs” value [2, 6] was 18.1% and 23.7% and 8.47% and 52.7% and the “Cmax” value [2, 6] was 233 ng/mL and 177 ng/mL and 352 ng/mL and 127 ng/mL. The “F (%)” value [2, 6] was 16.7% and 20.0% and 12.3%, the “MRTInf—obs” value [2, 6] was 3.27 h and 4.01 h and 2.21 h and 10.3 h and the “T1/2” value [2, 6] was 3.20 h and 3.31 h and 2.04 h and 8.02 h. The AUC(0-inf) [2, 7] was 2260 ng·h/mL, the AUC(0-t) [2, 7] was 1840 ng·h/mL and the half-life [2, 7] was 139 min. The C0 ([2]; male, CD1, mouse, plasma, iv, 10 mg/kg, IV 10 mg/kg, Mean of 4 mice, read-out: C0) was 4820 ng/mL, the MRT inf [2, 7] was 2.1 h and the Vd [2, 7] was 9.3 L/kg. The AUC(0-inf) [2, 8] was 1980 ng·h/mL, the AUC(0-t) [2, 8] was 1730 ng·h/mL and the half-life [2, 8] was 97.8 min. The C0 ([2]; male, CD1, mouse, plasma, iv, 10 mg/kg, IV 10 mg/kg, individual mouse, read-out: C0) was 3720 ng/mL, the MRT inf [2, 8] was 1.62 h and the Vd [2, 8] was 8.18 L/kg. It also gave an AUC(0-inf) [2, 9] of 429 ng·h/mL, an AUC(0-t) [2, 9] of 316 ng·h/mL and a Tmax [2, 9] of 15 min. The bioavailability [2, 9] was 16.5%, the half-life [2, 9] was 248 min and the Cmax ([2]; male, CD1, mouse, plasma, po, 10 mg/kg, PO 10 mg/kg, Mean of 4 mice, read-out: Cmax) was 222 ng/mL. For the same compound, the MRT inf [2, 9] was 4.9 h, the AUC(0-inf) [2, 10] was 383 ng·h/mL and the AUC(0-t) [2, 10] was 314 ng·h/mL. The Tmax [2, 10] was 15 min, the bioavailability [2, 10] was 16.9% and the IC50 [3] was 1050 nM. For the same compound, the toxicity observed ([4]; 12.5 mg/kg, mouse) was “acute toxicity for CCL-106 (strong tremors and weight loss)”, the toxicity observed ([4]; 15.63 mg/kg dose at each of days 5, 6, and 7, mouse) was “seizure like symptoms but recovered more quickly (around 30 minutes)” and the toxicity observed ([4]; 31.25 mg/kg dose, mouse) was “stop moving after about 2 minutes and have seizure like symptoms”. The toxicity observed ([4]; 39.06 mg/kg dose, mouse) was “killed a mouse immediately”, the toxicity observed ([4]; 46.87 mg/kg dose, mouse) was “killed a mouse immediately” and the toxicity observed ([4]; 3.12, 6.25, and 10 mg/kg dose, mice) was “No toxicity was observed”. The tail vein toxicity ([4]; daily 31.25 mg/kg doses, mouse) was “displayed tail vein toxicity on day 2”.

Source: patent publication US20260097049A1, “C[…] AND METHODS OF USE FOR TREATMENT AND PREVENTION OF CANCER” (BlackStone Therapeutics, LLC, priority 2022, published 2026)
